Entries after “also recorded” stand apart in the source; their conditions may differ.
Assays:
PKC γ = PKC γ (Rattus norvegicus, UniProt P63319); conditions: Naor et al. 1988; cited from earlier work
MAT-Lu cells [1] = test: Pseudopod morphometry (pseudopod length assay), MAT-Lu cells; type: cell-based, rat
Experimental: (§1) Pseudopod Morphometry. To study the effects of various agents on pseudopods on a short-term basis, we measured pseudopod lengths. Cells plated in 35-mm diameter dishes at low density (1×10^4 per dish) were incubated overnight, tie medium was changed, and the experiments were run four hours later. First, cultures were shifted to serum-free medium, which was replaced one hour later by serum-free medium with or without the various agents (thrombin, AA or HETEs). Care was taken to avoid heat and light inactivation of the eicosanoids. Culture dishes were placed on a Zeiss inverted microscope equipped with a heated stage and viewed with a 16×phase contrast objective lens. Randomly selected fields of the cultures, containing generally about 20 cells each, were recorded, digitized and stored in the computer at the onset of the experiment and at different times thereafter.
(§2) In some cases, individual cells were monitored over different periods of time immediately after introduction of the reagent, either by mixing it into the medium or by applying it locally to one end of the cell. Local application was done with a “puffer” system that expels microliter amounts of the desired solution from a micromanipulator-controlled micropipette tip. Cell morphology was recorded, and the captured images were analyzed with a Power Macintosh computer using NIH Image. Cell process length was measured from the center of the nucleus to the end of the process. Characterization of the frequencies of pseudopod lengths, at a fixed time for each of a sequence of concentrations of reagent, utilized a gamma regression model with an inverse quadratic linear predictor (McCullagh and Nelder, Generalized Linear Models 2d ed., pp. 291-292 (Chapman & Hall, 1989), separately fit to each concentration data set. Although no formal goodness-of-fit tests were carried out, in virtually every case there was good visual representation of the pattern of response (see FIG. 14). Most data, however, are shown as whisker-box plots, where the center point represents the 50%, the ends of the box the […] and 75%, and the “whiskers” the 5% and 95% quantiles (e.g., FIG. 11). Statistical comparisons of pseudopod lengths for different treatments were done by standard non-parametric techniques (Wilcoxon Rank Sum or Kruskal-Wallis Tests), as judged appropriate. Polynomial curve fittings were done by standard least-squares techniques. Statistical analyses and graphing were done with the use of SAS procedures: Reg, Phreg, Nparlway and Plot (SAS institute Inc., Cary, N.C.).

AT-2 cells = test: Pseudopod length / retraction assay, AT-2 cells; type: cell-based, rat; conditions: for pseudopod retraction response of AT-2 cells: AA even at 10^−1M
Experimental: as §1, §2

[2] = test system: high motility (MAT-Lu, MAT-LyLu and AT-3) Dunning carcinoma cells; test: Pseudopod length assay, high-motility Dunning carcinoma cells; type: cell-based, rat
Experimental: as §1
In some cases, individual cells were monitored over different periods of time immediately after introduction of the reagent, either by mixing it into the medium or by applying it locally to one end of the cell. […] Cell morphology was recorded, and the captured images were analyzed with a Power Macintosh computer using NIH Image. Cell process length was measured from the center of the nucleus to the end of the process. […]

growth cone PLC = test: Phospholipase C assay (DG release) in GCPs; type: biochemical, rat; conditions: IGF-1, low nanomolar range; 10 μM free Ca^2+
Source text: (§3) All assays were run in triplicate.

MAT-Lu cells [3] = test: Boyden chamber motility assay, MAT-Lu cells; type: cell-based, rat
Experimental: Boyden Chamber Motility Assays. Disposable transwells (Coming Costar, Cambridge, Mass.) of 6.5 mm diameter and 8 μm pore size were coated with 5 μg/ml laminin on both sides. The membranes were washed twice with Hank's balanced salt solution (HBSS) and then pre-incubated with growth medium containing 10% fetal bovine serum. Trypsinized cells (5×10^4) were plated into the upper well. After 1 hour the upper chamber was washed twice with HBSS, filled with serum-free medium and moved to a new lower chamber, also filled with serum-free medium, with or without thrombin and/or 0.75 nM insulin-like growth factor-1 (IGF-1). After incubation for 4 hrs, cells on the membrane were fixed and stained with a Diff-Quick kit (Baxter Scientific Products). Cells on the upper side were scraped off, the membranes were removed, mounted onto microscope slides and analyzed. Each filter was scanned twice at right angles under the light microscope with a 16×phase contrast objective lens. A continuous series of 20 frames for each filter was digitized using a high-resolution CCD camera (Kodak) and stored in a Power Macintosh computer. The two most peripheral pairs of frames from each scan were deleted so that 12 frames were analyzed for each filter. Cells that had crossed the membrane were counted and tabulated. The sum of the cells counted in the twelve frames was an individual data point.

growth cone PLA2 = test: PLA2 assay in growth cone particles (GCPs); type: biochemical, rat
Experimental: Growth Cone Particle (GCP) Isolation. GCPs were prepared as described by Pfenninger et al. (1983) and modified by Lohse et al., Dev. Brain Res., 96:38-96 (1996). Briefly, 18-day fetal brains were homogenized in approximately 8 volumes of 0.32 M sucrose containing 1 mM MgCl2, 2 mM TES buffer, pH 7.3, and 3 μM aprotinin. A low-speed supernatant (1,660 g×15 min) was loaded onto a discontinuous sucrose density gradient With steps of 0.83 M and 2.66 M sucrose containing MgCl2 and TES. The gradients were spun to equilibrium at 242,000 g for 40 min in a vertical rotor (Vti50, Beckman). The GCP fraction at the 0.32/0.83 M sucrose interface was collected and used for the experiments described below.
as §3

cPLA2 = test: PLA2 activity (14C-AA release) in MAT-Lu cells; type: biochemical, rat; conditions: 5 mM dithiothreitol
Experimental: MAT-Lu cells were plated at a density of 0.5×10^6 cells per flask (T-75) and grown as detailed above to approximately 25% confluency. On the day before the experiments, the serum level in the medium was dropped to 1%. Cells were fed with fresh 1% serum-medium 4 hrs prior to harvest. For harvesting, cells were rinsed with Ca^++,Mg^++-free HBSS, covered with 2 ml cold Ca^++-free modified Krebs buffer (220 mM sucrose, 50 mM NaCl, 5 mM KCl, 22 mM HEPES, 10 mM glucose. 1.2 mM NaH2PO4 and 1.2 mM MgCl2, pH 7.3), and placed on ice. Cells were scraped off, pelleted for 5 min at 200 rpm and re-suspended in a minimal volume of Krebs buffer. Aliquots were used to determine protein concentration (Biorad Assay) and phopholipase activity. To measure PLA2 activity 10-12 μg of cell protein was incubated with or without thrombin for 10 min on ice, ^14C-AA-labeled phospholipid substrate (7 μM. 40-60 mCi/mmol) was added, and the mixture was transferred to 37° for 20 min. The reaction was stopped by adding cold cliloroform/methanol (1:2 v/v). Lipid extraction followed by thin-layer chromatography (Negre-Aminou et al., J Neurochem 67:2599-2608 (1996)) isolated the reaction product (identified by co-migration with AA standard), which was then scraped off the plates and analyzed in a scintillation spectrometer (Beckman). In some experiments, especially those involving ^14C-AA-phosphatidylinositol as substrate, the diacylglycerol-containing band (identified by co-migration of standard) also was scraped and counted in order to measure phospholipase C (PLC) activity.

protein kinase C (PKC) = test: MARCKS phosphorylation by PKC in isolated GCPs; type: biochemical, rat; conditions: 30 sec @ 30° C.; 10^−6M or less free Ca^2+
Source text: FIG. 7A. Thrombin stimulates MARCKS phosphorylation in a 12-LOX-dependent manner. FIG. 7B. 12(S)-HETE stimulates MARCKS phosphorylation by PKC in isolated GCPs. […] Polypeptides were resolved by SDS-PAGE. MARCKS phosphorylation was quantified by phosphorimaging.

12(S)-HETE receptor = conditions: Liu et al. 1995; Herbertsson and Hammarstrom 1992; cited from earlier work
[4] = test system: growth cones in cultures of rat cerebral cortex; test: Growth cone collapse assay in cortical neuron culture; type: cell-based; conditions: thrombin 100 nM; TRAP (100 mM); 12(S)-HETE 10^−7 M
Experimental: Neuron Culture. Cerebral cortices were dissected from embryonic day 18 Sprague-Dawley rats, cut into explants of less than 1 mm^3 and cultured on either poly-D-lysine-coated coverglass (Assistent) or poly-D-lvsine-coated tissue culture plastic. After 24 hours in B27 neurobasal medium (NB) supplemented with 10% fetal bovine serum, cultures were switched to serum-free B27/NB. The cultures were incubated at 37° C. in 5% CO2 in air. Sprouting neurons were observed readily on day 1. On day 2 or 3, long neurites were present, and the cultures were used for collapse experiments.
Actin Staining. After experimentation, cultures were fixed by slow infusion of fixative (4% paraformaldehyde in 0.1 M phosphate buffer, pH 7.4) into the culture dishes over 10 min (Pfenninger and Maylié-Pfenninger, J. Cell Biol. 89:53-546 (1981)). Thereafter, the fixative was removed by rinsing three times with phosphate-buffered saline (PBS) containing 1 mM glycine. Cultures were then blocked with PBS/1% bovine serum albumin (BSA) and permeabilized by incubation in 0.02% Triton X-100 for 5 min. After three washes in PBS/BSA, cultures were incubated with Texas-Red-conjugated phalloidin for 30 min. Unbound phalloidin was washed away by two PBS rinses, after which the coverglasses were mounted in Slow-Fade Light on microscope slides. Images were recorded on 35 mm film using a Zeiss Axiophot fluorescence microscope equipped with epiillumination.
Growth Cone Collapse Assay. Prior to repellent factor treatment, some of the day 2-3 explant cultures were pre-incubated (at 37° C.) with inhibitor or vehicle control (dimethylsulfoxide or ethanol) for 30-60 min. Cultures were then challenged with a repellent factor or vehicle control for 1-30 min. In some experiments, live cultures were photographed with a Zeiss IM 35 inverted photo microscope equipped with a stage heater, while in others cultures were fixed (as above) after 7 minutes of repellent factor treatment. Growth cone collapse was assessed quantitatively in aldehyde-fixed cultures by grading the degree of collapse in a large number of randomly selected growth cones.

Q: For `CCCCC/C=C\C/C=C\C/C=C\C/C=C\CCCC(=O)O` [AA, arachidonic acid], which “concentration at peak of biphasic PKC γ response” value (PKC γ) is on record?
A: 12 µM

Q: And the “effect of agent alone on pseudopod length” value (MAT-Lu cells [1]; typically 15 min exposure)?
A: caused significant but reversible reduction of pseudopod length; also recorded: mimics the thrombin-induced length reduction; also recorded: causes statistically significant pseudopod shortening

Q: And the “pseudopod retraction response of AT-2 cells” value (AT-2 cells)?
A: almost completely insensitive

Q: And the “pseudopod response to AA” value ([2]; all three high-motility cell types)?
A: responded to AA in the manner described for MAT-Lu cells

Q: Which results are given for “IGF-1: insulin-like growth factor-1, positive chemotactic factor”?
A: stimulation of DG release in GCPs (growth cone PLC): approximately two-fold; Mat-Lu cells crossing filter in % of control +/− SEM (MAT-Lu cells [3]; IGF-1 (0.75 nM), 4 hr, thrombin 200 nM, CDC 126 nM): 184 +/− 15 % of control; enhancement of MAT-Lu migration across laminin-coated membrane (MAT-Lu cells [3]; IGF-1 in the lower chamber, 4 hr): about 1.8 fold; increase in MAT-Lu migration (MAT-Lu cells [3]; four-hour assays): about 80%; stimulation of AA release from PI (growth cone PLA2; IGF-1, low nanomolar range, 10 μM free Ca^2+): about 1.7 fold; net activity (pmol/min/mg protein) (growth cone PLA2; Table 3c, GCPs, substrate PI, BDNF 100, IGF-1 0.75, insulin 1, thrombin 200 nM, control 159 ± 6.2): 177 ± 14.5 pmol/min/mg protein

Q: For `O[C@H](CS)[C@H](O)CS` (racemic) [DTT, dithiothreitol], which “net activity (pmol/min/mg protein), 50 nM DTT” value (growth cone PLA2; Table 3b, GCPs, substrate PI, thrombin 100 nM or control) is on record?
A: 66.0 ± 4.7 pmol/min/mg protein

Q: What about the “effect of reducing agent on measured PLA2 activity” value (cPLA2) of the same compound?
A: did not significantly inhibit the measured PLA2 activity

Q: Which “concentration at peak of MARCKS and GAP43 phosphorylation (biphasic)” value (protein kinase C (PKC)) does the source give for `CCCCC/C=C\C[C@H](O)/C=C/C=C\C/C=C\CCCC(=O)O` [12(S)-HETE, 12(S)-hydroxyeicosatetraenoic acid] here?
A: about 10^−10 M

Q: And the Kd (12(S)-HETE receptor)?
A: 1 nM

Q: And the “time required for saturation” value (12(S)-HETE receptor)?
A: 90 to 120 min

Q: And the “time until pseudopod shortening nearly complete for most cells” value (MAT-Lu cells [1]; 10^−10M by medium replacement)?
A: about 15 min

Q: What about the “time at which pseudopod lengths reach a minimum” value (MAT-Lu cells [1]; 10^−10 M by medium replacement, 73 pseudopods) of the same compound?
A: about 17 min

Q: What about the “length reduction for the median pseudopod length versus control” value (MAT-Lu cells [1]; at 10^−11 and 10^−10 M, 15 min, p<0.0001) of the same compound?
A: > 45%

Q: And the “time until pseudopod absorbed completely into the cell” value (MAT-Lu cells [1]; local application, 10^−10M)?
A: about 15 min

Q: And the “onset of pseudopod detachment and shortening” value (MAT-Lu cells [1]; local application, 10^−10M, about 10 μm from cell process)?
A: ≤ 1 min

Q: What about the “growth cone collapse, agent alone” value [4] of the same compound?
A: mimics the effects of thrombin and TRAP; also recorded: does indeed cause growth cone collapse

Q: And the “effect on AT-2 pseudopod length” value (AT-2 cells; 10^−11M)?
A: seems to increase pseudopod length

Q: And the “pseudopod retraction response of AT-2 cells” value (AT-2 cells)?
A: retraction was not observed

Q: And the “concentration at peak of pseudopod retraction” value ([2]; 15-min incubation)?
A: 10^−11 to 10^−10 M

Source: patent US6566047B1, “Method for identifying neurite-growth promoting agents” (The Regents of the University of Colorado, priority 1998, dated 2003)
